Tests used:
Type in all cases: in vivo, rat
Male Zucker fa/fa rats [1] = assay: Day-night profile of glycemia and insulinemia, day 16 to day 17 of treatment
Description: The parameters monitored were morning blood glucose and plasma insulin levels. […] An OGTT was performed finally on day 21 to monitor blood glucose and plasma insulin kinetics to assess changes in glucose tolerance. Glibenclamide (DAB 1996; R011150/33372) was donated by Berlin-Chemie (Berlin, Germany). Male Zucker (fa/fa) rats of the body weight class of 300 g were purchased from Charles River (Sulzfeld, Germany). […] Thereafter, the non-diabetic Wistar rats were treated orally once daily with RP (5 mg/kg b.w.) or TP (21.61 mg/kg b.w.) and the diabetic Zucker rats were treated orally once daily with RP (1 mg/kg b.w.) or TP (21.61 mg/kg b.w.) for 21 days at 05.00 p.m. (before regular food intake in the dark phase). The controls were given 1% cellulose solution orally (5 ml/kg). […] The oral drug therapy was continued for one week. […] Blood glucose: Glucose levels were measured using the glucose oxidase procedure (Super G Glukosemeβgerät; Dr. Müller Gerätebau, Freital, Germany). Plasma insulin: Insulin concentrations were assayed by the antibody RIA method (LINCO Research, Inc. St. Charles, Mo., USA).

Male Zucker fa/fa rats [2] = assay: Repeated once-daily oral dosing: morning blood glucose and plasma insulin
Description: The parameters monitored were morning blood glucose and plasma insulin levels. In a day-night profile, glycemia and insulinaemia were monitored from day 16 to day 17. An OGTT was performed finally on day 21 to monitor blood glucose and plasma insulin kinetics to assess changes in glucose tolerance. Glibenclamide (DAB 1996; R011150/33372) was donated by Berlin-Chemie (Berlin, Germany). Male Zucker (fa/fa) rats of the body weight class of 300 g were purchased from Charles River (Sulzfeld, Germany).
Housing Conditions: Animals were kept single-housed under conventional conditions with controlled temperature (22±2° C.) on a 12/12 hours light/dark cycle (light on at 06:00 a.m.). Standard pellets (ssniff®, Soest, Germany) and tap water acidified with HCl were allowed ad libitum.
Catheterization of Carotid Artery: After one week of adaptation carotid catheters were implanted in the rats under general anesthesia (injection of 0.25 ml/kg i.p. Rompun® [2%], Bayer, Germany) and 0.5 ml/kg i.p. Velonarkon® (Arzneimittelwerk Dresden, Germany). The animals were allowed to recover for one week. The catheter was flushed with heparin-saline (100 IU/ml) three times per week.
Thereafter, the non-diabetic Wistar rats were treated orally once daily with RP (5 mg/kg b.w.) or TP (21.61 mg/kg b.w.) and the diabetic Zucker rats were treated orally once daily with RP (1 mg/kg b.w.) or TP (21.61 mg/kg b.w.) for 21 days at 05.00 p.m. (before regular food intake in the dark phase). The controls were given 1% cellulose solution orally (5 ml/kg). Blood samples were taken every morning at 07.30 a.m. from tail veins for measurement of blood glucose and plasma insulin. The last blood samples of this part of the program were taken at 07.30 a. m. on the 15th day to measure blood glucose and plasma insulin. The oral drug therapy was continued for one week. Recording the day-night profile under the above therapy blood glucose (Δt=3 h) and plasma insulin (Δt=3-6 h) were monitored from day 16 (at 05.00 p.m. beginning) to day 17 (at 02.00 p.m. end).
Blood glucose: Glucose levels were measured using the glucose oxidase procedure (Super G Glukosemeβgerät; Dr. Müller Gerätebau, Freital, Germany).
Plasma insulin: Insulin concentrations were assayed by the antibody RIA method (LINCO Research, Inc. St. Charles, Mo., USA).

Male Zucker fa/fa rats [3] = assay: OGTT after 21 days treatment: blood glucose and plasma insulin
Description: The parameters monitored were morning blood glucose and plasma insulin levels. […] An OGTT was performed finally on day 21 to monitor blood glucose and plasma insulin kinetics to assess changes in glucose tolerance. Glibenclamide (DAB 1996; R011150/33372) was donated by Berlin-Chemie (Berlin, Germany). Male Zucker (fa/fa) rats of the body weight class of 300 g were purchased from Charles River (Sulzfeld, Germany). Repeated Dosing: 30 male non-diabetic Wistar and 30 male diabetic Zucker rats were randomized to RP (Reference Product: glibenclamide)-, TP- (jest Product: […] Thereafter, the non-diabetic Wistar rats were treated orally once daily with RP (5 mg/kg b.w.) or TP (21.61 mg/kg b.w.) and the diabetic Zucker rats were treated orally once daily with RP (1 mg/kg b.w.) or TP (21.61 mg/kg b.w.) for 21 days at 05.00 p.m. (before regular food intake in the dark phase). The controls were given 1% cellulose solution orally (5 ml/kg). […] The oral drug therapy was continued for one week. […] OGTT: A final OGTT was performed on day 21 with blood sampling from the tail vein. […] The latter were immediately centrifuged and the plasma fractions were stored at −20 ° C. for insulin analysis. Blood glucose: Glucose levels were measured using the glucose oxidase procedure (Super G Glukosemeβgerät; Dr. Müller Gerätebau, Freital, Germany). Plasma insulin: Insulin concentrations were assayed by the antibody RIA method (LINCO Research, Inc. St. Charles, Mo., USA).

SMILES: COc1ccc(Cl)cc1C(=O)NCCc1ccc(S(=O)(=O)NC(=O)NC2CCCCC2)cc1 [glibenclamide, reference compound]
- Mean blood glucose, day-night profile (Male Zucker fa/fa rats [1]; 02.00 p.m. next day, RP 1 mg/kg, TP 21.61 mg/kg orally once daily): 7.34 ± 0.77 mmol/L
- Plasma insulin, day-night profile (Male Zucker fa/fa rats [1]; 02.00 p.m. the next day): 58.3 ± 7.3 ng/mL
- Plasma insulin, day-night profile (Male Zucker fa/fa rats [1]; 05.00 a.m. (maximum)): 76.3 ± 8.6 ng/mL
- Plasma insulin, day-night profile (Male Zucker fa/fa rats [1]; 05.00 p.m., RP 1 mg/kg, TP 21.61 mg/kg orally once daily): 50.0 ± 8.2 ng/mL
- Plasma insulin, day-night profile (Male Zucker fa/fa rats [1]; 08.00 p.m.): 57.3 ± 8.2 ng/mL
- Mean blood glucose, day-night profile (Male Zucker fa/fa rats [1]; 11.00 a.m., RP 1 mg/kg, TP 21.61 mg/kg orally once daily): 7.66 ± 1.22 mmol/L
- Mean blood glucose, day-night profile (Male Zucker fa/fa rats [1]; 11.00 p.m., RP 1 mg/kg, TP 21.61 mg/kg orally once daily): 14.80 ± 1.46 mmol/L
- Mean blood glucose, day-night profile (Male Zucker fa/fa rats [1]; day 16, 05.00 p.m. before drug application, RP 1 mg/kg, TP 21.61 mg/kg orally once daily): 7.96 ± 1.13 mmol/L
- Increase of insulin output compared to the control (Male Zucker fa/fa rats [1]; obese Zucker rat, subchronic treatment): 27%
- Plasma insulin during 14 days in comparison to the control animals (Male Zucker fa/fa rats [2]; rat, in vivo): insulin increase to significantly higher concentrations than in control animals
- Increase of morning blood glucose (Male Zucker fa/fa rats [2]; within two days of therapy): about 1.5 mmol/l
- Glycemia at the last drug application (Male Zucker fa/fa rats [3]; 05.00 p.m., night before day 21): 8.81 ± 1.21 mmol/L
- G-AUC in comparison to the placebo application (Male Zucker fa/fa rats [3]; day 21): increased
- Blood glucose during OGTT (Male Zucker fa/fa rats [3]; day 21, 50 min): 16.33 ± 0.98 mmol/L
- Blood glucose during OGTT (Male Zucker fa/fa rats [3]; day 21, 80 min): 16.24 ± 1.09 mmol/L
- Blood glucose during OGTT (Male Zucker fa/fa rats [3]; day 21, 100 min): 15.13 ± 0.76 mmol/L
- Blood glucose during OGTT (Male Zucker fa/fa rats [3]; day 21, 120 min): 14.81 ± 0.66 mmol/L
- Glycemia after overnight fasting (basal, before OGTT) (Male Zucker fa/fa rats [3]; day 21, morning (07.30 a. m.)): 4.91 ± 0.37 mmol/L
- Fasting plasma insulin at the beginning of the OGTT (Male Zucker fa/fa rats [3]; day 21, overnight fasting, listed as RP): ~12.5 ng/mL
- Blood glucose increase after the glucose load (Male Zucker fa/fa rats [3]; day 21 OGTT): about 11 mmol
- Plasma insulin after a glucose stimulus (Male Zucker fa/fa rats [3]; day 21 OGTT): remained mostly unchanged
- Glucose area under the curve (G-AUC0-120 min) (Male Zucker fa/fa rats [3]; day 21 OGTT, CO-group 823±41): 1096 ± 76 mmol·min/L

Source: patent US20010051646A1, “Method for the improvement of islet signaling in diabetes mellitus and for its prevention” (priority 2000, published 2001)
